Data on one molecule can be found in patent US20160213647A1, “COMPOSITIONS AND METHODS FOR INHIBITING VIRAL INFECTION” (priority 2015, published 2016).

The test system of data set [1] is influenza A virus (IAV) strain PR8 (H1N1). The format is cell-based.
The test system of data set [2] is arenavirus Tacaribe (TCRV), strain TRLV11573. Kind of data set: microbe, parasite or virus in culture. The format is cell-based, Tacaribe virus. The conditions noted are these: Vero.
Data set [3] deals with Junin virus strains Candid-1, XJC13 and IV4454. Kind of data set: in vitro. The conditions noted are these: African green monkey (Vero), human (A549).
A short description of a further data set: in vitro. To be noted: African green monkey, CC50 (Neutral Red).
The subject of the next data set is HIV-1 isolate MDR807. Kind of data set: microbe, parasite or virus in culture. To be noted: Human immunodeficiency virus 1, PBMC.
Another data set deals with HIV-1 MDR 769. Kind of data set: microbe, parasite or virus in culture. The conditions noted are these: Human immunodeficiency virus 1, PBMC.
The test system of a further data set is DENV-2. Description: Virus yield reduction assay by qRT-PCR in Vero cells. The format is cell-based. The conditions noted are these: Dengue virus, DENV2, Vero, 48 h, read-out: Antiviral Activity IC50. In general terms: Real-time PCR tracks product formation cycle by cycle.
Another data set relates to JUNV strain XJCl3. Kind of data set: microbe, parasite or virus in culture. To be noted: Mammarenavirus juninense, Vero, 48 h.
For data set [4] the following is noted: in vivo; cited from earlier work.
For data set [5], the system named is influenza A virus (IAV) strain PR8 (H1N1). The format is cell-based. This is another data set of the same source.
A further data set deals with HIV-1 isolate NL4-3. Description: microbe, parasite or virus in culture. To be noted: Human immunodeficiency virus 1, NL43, PBMC.

In brackets after ≈: the same amount, converted by molar mass. Like-named read-outs stand apart in the source and are kept apart here.

For orientation: EC50 means the concentration at which the effect is half-maximal. One may read the IC50 as the concentration that inhibits the measured activity by half. For the molecule `NCC(=O)Nc1ccc(-n2nc(C(F)(F)F)cc2-c2ccc3c(ccc4ccccc43)c2)cc1` [AR-12, 2-amino-N-(4-(5-(phenanthren-2-yl)-3-(trifluoromethyl)-1H-pyrazol-1-yl)phenyl)acetamide], the “viral protein production is reduced” value in data set [1] is on record as “at least 50%”. Also, the EC50 in [2] turned out to be 0.35 ± 0.03 µM; with JUNV strain XJCl3 it was 0.23 ± 0.01 µM. The selectivity ratio in [3] lay in the range of 35.1 to 129. Also, the CC50 in the data set “in vitro” is 1.3 mg/L (≈ 2.82 µM). In addition, the IC50 in the data set on HIV-1 91US001 worked out at 0.24 µM; in the data set on HIV-1 MDR 769 it was 0.31 µM; with DENV-2 it was 0.8 µM. The IC90 amounted to 0.905 µM in the data set on HIV-1 isolate MDR807, 2.13 µM with HIV-1 isolate MDR807 (read-out: IC50), 0.749 µM in the data set with HIV-1 isolate NL4-3 and 2.17 µM in the data set on HIV-1 isolate NL4-3 (read-out: IC50). The accumulation in tissues entry in data set [4] is on record as “appreciable accumulation in tissues”. For the same molecule, the “blood brain barrier penetration” value in data set [4] is given as “rapid blood brain barrier penetration”. For the same molecule, in the data set with Vero (listed as Pichinde Virus An 4763, neutral red), the CC50 (neutral red) turned out to be 2.8 mg/L (≈ 6.08 µM). Moreover, the CC50 (visual) came out at 3.2 mg/L (≈ 6.95 µM) in the data set with Vero (listed as Pichinde Virus An 4763) and 2.8 mg/L (≈ 6.08 µM) in the data set on Vero (listed as Yellow Fever Virus 17D). In addition, the “viral infection (% infection)” value in data set [5] is given as “prevents viral infections”.
